“Also recorded” adds a separate entry of the source.
What was measured:
[1] = tested on: Hana3A cells expressing Olfr111; assay: Boyden chamber chemotaxis assay, Hana3A cells expressing Olfr111; assay type: cell-based; settings: 2-PF 10, 100 and 1000 μM
Method: Chemotaxis was measured using a multi-well Boyden chamber. More specifically, a polycarbonate filter (8 μm pore; #101-8; Neuroprobe) was coated with […] fibronectin (Sigma-Aldrich) in PBS for 2 hours, and the coated filter was installed in a Boyden chamber. In addition, the bottom side of a plate was filled with serum-free DMEM containing 2-PF or a culture supernatant. Subsequently, microglia or Hana3A cells were transfected with an OR construct, and then suspended in serum-free DMEM. The microglia were kept at 37° C. for 4 hours, and the Hana3A cells for 8 hours. Cells that migrated to the bottom surface were fixed with 4% PFA, and stained with hematoxylin for 10 minutes. The migrated cells were counted under a light microscope in five randomly selected fixed […] fields (200×) using a scored eyepiece. A chemotaxis index was defined as the migrated cell number normalized against the untreated group.

[2] = tested on: primary microglia; assay: Boyden chamber chemotaxis of primary microglia; assay type: cell-based, mouse; settings: 100, 300 and 500 μM
Method: In this example, microglia or astrocytes were primarily extracted from the cerebral cortex of E18.5 mouse embryos (Tamashiro et al., 2012), and cultured as described in Example 1. More specifically, the mouse embryonic cortex was collected, stored in a cold supernatant (#14170-112; Thermo Fisher Scientific), and pretreated in a 0.25% trypsin solution (#15090-046; Thermo Fisher Scientific) at 37° C. for 20 minutes. Afterward, cells were plated in a minimum nutrient medium supplemented with 10% FBS (#SH30919.03; Hyclone), 2 mM L-glutamine (#25030-081; Thermo Fisher Scientific), 0.04% glucose (#G7021; Sigma Aldrich), and 1% penicillin/streptomycin (#15140-122; Thermo Fisher Scientific), and filtered through a […] strainer (#352340; Thermo Fisher Scientific). The microglia were plated at a density of 1.2×10^7 cells in a T75 flask coated with poly-D-lysine (#P7280; Sigma Aldrich). […] Purities of the collected microglia and astrocytes were evaluated by qRT-PCR assay and immunocytochemistry using a marker gene and proteins such as Iba-1 and Gfap.
Chemotaxis was measured using a multi-well Boyden chamber. […] The migrated cells were counted under a light microscope in five randomly selected fixed […] fields (200×) using a scored eyepiece. […]

[3] = molecular target: T1, Olfr110 (Mus musculus, UniProt A2RT31); assay: Luciferase assay in Hana3A cells transfected with Olfr110; assay type: cell-based
T1 construct: Full-length odorant receptor genes from mouse and human genomic DNAs were amplified using appropriate primers; Lucy (N); Flag (N); Rho (N); expressed in transfected cells; host or cells: Hana3A cells, co-transfected with RTP1S, pCRELuc and pRL-SV40
T1 sequence (A2RT31 1-317): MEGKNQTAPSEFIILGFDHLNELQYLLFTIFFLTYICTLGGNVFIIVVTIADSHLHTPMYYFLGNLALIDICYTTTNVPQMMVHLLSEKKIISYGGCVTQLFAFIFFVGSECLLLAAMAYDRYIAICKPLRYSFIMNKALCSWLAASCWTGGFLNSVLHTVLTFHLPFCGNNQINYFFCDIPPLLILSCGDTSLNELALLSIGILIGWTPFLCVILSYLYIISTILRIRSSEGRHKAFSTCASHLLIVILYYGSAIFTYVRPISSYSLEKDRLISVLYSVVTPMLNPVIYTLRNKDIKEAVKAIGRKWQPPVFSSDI
Method: A Dual-Glo luciferase assay system (#E2940; Promega) was used for OR ligand screening. More specifically, Hana3A cells were seeded in white polystyrene 96-well plates (#353296; BD Biosciences) one day before transfection. pCRELuc (1 μg; #219076; Agilent Technologies), pRL-SV40 (1 μg; #E2231; Promega), RTP1S (1 μg), and OR (6 μg; or Mock) vectors were transfected for 24 hours in each plate. Analysis was performed using Lipofectamine 2000 (#11668-019; Thermo Fisher Scientific) according to the manufacturer's protocols. Transfected cells were stimulated at 37° C. for 4 hours with various concentrations of diluted odorants in a CD293 medium (#11913-019; Thermo Fisher Scientific). The activity of luciferase was normalized to that of Renilla luciferase. Luminescence was measured using a SpectraMax L microplate reader (Molecular Devices).

mode of action at Olfr110 [3]: agonist
Structure (SMILES): CCCCCc1ccco1 [2-PF, 2-pentylfuran]
mobility of Olfr111 cells (chemotaxis assay) [1]: increased in mobility in a concentration-dependent manner | chemotaxis [2]: significantly increased in a concentration-dependent manner | reactivity with Olfr110 (relative luciferase activity) ([3]; Hana3A cells): selective ligands; also recorded: showed the highest reactivity with Olfr110
